From patent publication US20070049564A1 (Wyeth, priority 2005, published 2007)
Values after ≈ are worked out from the molar mass of the structure shown. Like-named read-outs stand apart in the source and are kept apart here.

Assays:
c. albicans GC 3066 = test: MIC, broth microdilution
S. aureus GC 6335 = test: MIC, broth microdilution; details: Staphylococcus aureus
Experimental: (§1) Antimicrobial susceptibility testing. The in vitro activities of the antibiotics are determined by the broth microdilution method as recommended by the National Committee for Clinical Laboratory Standards (NCCLS) (1). Mueller-Hinton II broth (MHBII)(BBL Cockeysville, Md.) is the medium employed in the testing procedures. Microtiter plates containing serial dilutions of each antimicrobial agent are inoculated with each organism to yield the appropriate density (10^5 CFU/ml) in a 100 μl final volume. The plates are incubated for 18-22 hours at 35° C. in ambient air.
(§2) Representative compounds were first incubated in mouse serum for an hour prior to the in vitro testing against a panel of selected gram-positive and gram-negative bacteria strains. All compounds were also pre-incubated in water for an hour prior to testing as control. Representative compounds of Formula I were incubated in human serum prior to MIC determination.

E. coli GC 2234 = test: MIC, broth microdilution; details: Escherichia coli
S. pyogenes GC 4563 = test: MIC, broth microdilution; details: Streptococcus pyogenes
S. typhimurium GC 2172 = test: MIC, broth microdilution; details: Salmonella enterica, TYPHIMURIUM
E. coli GC 2231 = test: MIC, broth microdilution; details: Escherichia coli
E. coli GC 2272 = test: MIC, broth microdilution; details: Escherichia coli
S. pneumoniae* GC 4465 = test: MIC, broth microdilution; details: Streptococcus pneumoniae
Experimental: as §1, §2

S. aureus GC 2216 = test: MIC, broth microdilution; details: Staphylococcus aureus
S. aureus GC 6466 = test: MIC, broth microdilution; details: Staphylococcus aureus
E. coli GC 2232 = test: MIC, broth microdilution; details: Escherichia coli
S. epidermidis GC 4935 = test: MIC, broth microdilution; details: Staphylococcus epidermidis
S. pneumoniae+ GC 4465 = test: MIC, broth microdilution; details: Streptococcus pneumoniae
E. faecalis GC 2267 = test: MIC, broth microdilution; details: Enterococcus faecalis
E. coli GC 3226 = test: MIC, broth microdilution; details: Escherichia coli
S. aureus GC 1079 = test: MIC, broth microdilution; details: Staphylococcus aureus
E. faecium GC 2243 = test: MIC, broth microdilution; details: Enterococcus faecium
S. aureus GC 1131 = test: MIC, broth microdilution; details: Staphylococcus aureus
Staph. aureus Smith = test: In vivo activity (oral, iv; ED50) against Staph. aureus Smith in mice
Experimental: Representative examples of compounds of Formula I were tested for the oral efficacy using S. aureus Smith in mice.

E. faecium GC 4556 = test: MIC, broth microdilution; details: Enterococcus faecium
[1] = read-out: MINIMAL INHIBITORY CONCENTRATION MIC, Human Serum
[2] = read-out: MINIMAL INHIBITORY CONCENTRATION MIC, Mouse Serum
[3] = read-out: MINIMAL INHIBITORY CONCENTRATION MIC, Water

## CN(C)c1cc(NC(=O)CN(C(=O)OCOC(=O)c2ccc(F)cc2)C(C)(C)C)c(O)c2c1C[C@H]1C[C@H]3[C@H](N(C)C)C(O)=C(C(N)=O)C(=O)[C@@]3(O)C(O)=C1C2=O [Example 52, ({[(2-{[(5aR,6aS,7S,10aS)-9-(aminocarbonyl)-4,7-bis(dimethylamino)-1,8,10a,11-tetrahydroxy-10,12-dioxo-5,5a,6,6a,7,10,10a,12-octahydrotetracen-2-yl]amino}-2-oxoethyl)(tert-butyl)amino]carbonyl}oxy)methyl 4-fluorobenzoate]
c. albicans GC 3066; Candida albicans, GC3066, read-out: MINIMAL INHIBITORY CONCENTRATION MIC
  MIC: > 64 µg/mL
c. albicans GC 3066; Human Serum
  MINIMAL INHIBITORY CONCENTRATION MIC: >64 UG/ML
c. albicans GC 3066; Mouse Serum
  MINIMAL INHIBITORY CONCENTRATION MIC: >64 UG/ML
S. aureus GC 6335; GC6335, read-out: MINIMAL INHIBITORY CONCENTRATION MIC, Human Serum
  MIC: 2 µg/mL (≈ 2.56 µM)
S. aureus GC 6335; GC6335, read-out: MINIMAL INHIBITORY CONCENTRATION MIC, Mouse Serum
  MIC: 1 µg/mL (≈ 1.28 µM)
S. aureus GC 6335; GC6335, read-out: MINIMAL INHIBITORY CONCENTRATION MIC, Water
  MIC: 4 µg/mL (≈ 5.12 µM)
E. coli GC 2234; GC2234, read-out: MINIMAL INHIBITORY CONCENTRATION MIC, Human Serum
  MIC: 4 µg/mL (≈ 5.12 µM)
E. coli GC 2234; GC2234, read-out: MINIMAL INHIBITORY CONCENTRATION MIC, Mouse Serum
  MIC: 0.5 µg/mL (≈ 0.64 µM)
E. coli GC 2234; GC2234, read-out: MINIMAL INHIBITORY CONCENTRATION MIC, Water
  MIC: 8 µg/mL (≈ 10.2 µM)
S. pyogenes GC 4563; GC4563, read-out: MINIMAL INHIBITORY CONCENTRATION MIC, Human Serum
  MIC: 0.25 µg/mL (≈ 0.32 µM)
S. pyogenes GC 4563; GC4563, read-out: MINIMAL INHIBITORY CONCENTRATION MIC, Mouse Serum
  MIC: 0.12 µg/mL (≈ 0.153 µM)
S. pyogenes GC 4563; GC4563, read-out: MINIMAL INHIBITORY CONCENTRATION MIC, Water
  MIC: 0.25 µg/mL (≈ 0.32 µM)
S. typhimurium GC 2172; [1]
  MIC: 64 µg/mL (≈ 81.9 µM)
S. typhimurium GC 2172; [2]
  MIC: 4 µg/mL (≈ 5.12 µM)
S. typhimurium GC 2172; [3]
  MIC: 64 µg/mL (≈ 81.9 µM)
E. coli GC 2231; GC2231, read-out: MINIMAL INHIBITORY CONCENTRATION MIC, Human Serum
  MIC: 8 µg/mL (≈ 10.2 µM)
E. coli GC 2231; GC2231, read-out: MINIMAL INHIBITORY CONCENTRATION MIC, Mouse Serum
  MIC: 1 µg/mL (≈ 1.28 µM)
E. coli GC 2231; GC2231, read-out: MINIMAL INHIBITORY CONCENTRATION MIC, Water
  MIC: 16 µg/mL (≈ 20.5 µM)
E. coli GC 2272; GC2272, read-out: MINIMAL INHIBITORY CONCENTRATION MIC, Human Serum
  MIC: 4 µg/mL (≈ 5.12 µM)
E. coli GC 2272; GC2272, read-out: MINIMAL INHIBITORY CONCENTRATION MIC, Mouse Serum
  MIC: 0.5 µg/mL (≈ 0.64 µM)
E. coli GC 2272; GC2272, read-out: MINIMAL INHIBITORY CONCENTRATION MIC, Water
  MIC: 4 µg/mL (≈ 5.12 µM)
S. pneumoniae* GC 4465; [1]
  MIC: 0.25 µg/mL (≈ 0.32 µM)
S. pneumoniae* GC 4465; [2]
  MIC: < 0.06 µg/mL
S. pneumoniae* GC 4465; [3]
  MIC: 0.12 µg/mL (≈ 0.153 µM)
S. aureus GC 2216; GC2216, read-out: MINIMAL INHIBITORY CONCENTRATION MIC, Human Serum
  MIC: 1 µg/mL (≈ 1.28 µM)
S. aureus GC 2216; GC2216, read-out: MINIMAL INHIBITORY CONCENTRATION MIC, Mouse Serum
  MIC: 0.5 µg/mL (≈ 0.64 µM)
S. aureus GC 2216; GC2216, read-out: MINIMAL INHIBITORY CONCENTRATION MIC, Water
  MIC: 4 µg/mL (≈ 5.12 µM)
S. aureus GC 6466; GC6466, read-out: MINIMAL INHIBITORY CONCENTRATION MIC, Human Serum
  MIC: 1 µg/mL (≈ 1.28 µM)
S. aureus GC 6466; GC6466, read-out: MINIMAL INHIBITORY CONCENTRATION MIC, Mouse Serum
  MIC: 0.5 µg/mL (≈ 0.64 µM)
S. aureus GC 6466; GC6466, read-out: MINIMAL INHIBITORY CONCENTRATION MIC, Water
  MIC: 2 µg/mL (≈ 2.56 µM)
E. coli GC 2232; GC2232, read-out: MINIMAL INHIBITORY CONCENTRATION MIC, Human Serum
  MIC: 4 µg/mL (≈ 5.12 µM)
E. coli GC 2232; GC2232, read-out: MINIMAL INHIBITORY CONCENTRATION MIC, Mouse Serum
  MIC: 0.5 µg/mL (≈ 0.64 µM)
E. coli GC 2232; GC2232, read-out: MINIMAL INHIBITORY CONCENTRATION MIC, Water
  MIC: 8 µg/mL (≈ 10.2 µM)
S. epidermidis GC 4935; GC4935, read-out: MINIMAL INHIBITORY CONCENTRATION MIC, Human Serum
  MIC: 4 µg/mL (≈ 5.12 µM)
S. epidermidis GC 4935; GC4935, read-out: MINIMAL INHIBITORY CONCENTRATION MIC, Mouse Serum
  MIC: 1 µg/mL (≈ 1.28 µM)
S. epidermidis GC 4935; GC4935, read-out: MINIMAL INHIBITORY CONCENTRATION MIC, Water
  MIC: 4 µg/mL (≈ 5.12 µM)
S. pneumoniae+ GC 4465; [1]
  MIC: 4 µg/mL (≈ 5.12 µM)
S. pneumoniae+ GC 4465; [2]
  MIC: 1 µg/mL (≈ 1.28 µM)
S. pneumoniae+ GC 4465; [3]
  MIC: 2 µg/mL (≈ 2.56 µM)
E. faecalis GC 2267; GC2267, read-out: MINIMAL INHIBITORY CONCENTRATION MIC, Human Serum
  MIC: 4 µg/mL (≈ 5.12 µM)
E. faecalis GC 2267; GC2267, read-out: MINIMAL INHIBITORY CONCENTRATION MIC, Mouse Serum
  MIC: 0.5 µg/mL (≈ 0.64 µM)
E. faecalis GC 2267; GC2267, read-out: MINIMAL INHIBITORY CONCENTRATION MIC, Water
  MIC: 4 µg/mL (≈ 5.12 µM)
E. coli GC 3226; GC3226, read-out: MINIMAL INHIBITORY CONCENTRATION MIC, Human Serum
  MIC: 16 µg/mL (≈ 20.5 µM)
E. coli GC 3226; GC3226, read-out: MINIMAL INHIBITORY CONCENTRATION MIC, Mouse Serum
  MIC: 1 µg/mL (≈ 1.28 µM)
E. coli GC 3226; GC3226, read-out: MINIMAL INHIBITORY CONCENTRATION MIC, Water
  MIC: 16 µg/mL (≈ 20.5 µM)
S. aureus GC 1079; GC1079, read-out: MINIMAL INHIBITORY CONCENTRATION MIC, Human Serum
  MIC: 1 µg/mL (≈ 1.28 µM)
S. aureus GC 1079; GC1079, read-out: MINIMAL INHIBITORY CONCENTRATION MIC, Mouse Serum
  MIC: 0.5 µg/mL (≈ 0.64 µM)
S. aureus GC 1079; GC1079, read-out: MINIMAL INHIBITORY CONCENTRATION MIC, Water
  MIC: 2 µg/mL (≈ 2.56 µM)
E. faecium GC 2243; GC2243, read-out: MINIMAL INHIBITORY CONCENTRATION MIC, Human Serum
  MIC: 1 µg/mL (≈ 1.28 µM)
E. faecium GC 2243; GC2243, read-out: MINIMAL INHIBITORY CONCENTRATION MIC, Mouse Serum
  MIC: 0.25 µg/mL (≈ 0.32 µM)
E. faecium GC 2243; GC2243, read-out: MINIMAL INHIBITORY CONCENTRATION MIC, Water
  MIC: 1 µg/mL (≈ 1.28 µM)
S. aureus GC 1131; GC1131, read-out: MINIMAL INHIBITORY CONCENTRATION MIC, Human Serum
  MIC: 1 µg/mL (≈ 1.28 µM)
S. aureus GC 1131; GC1131, read-out: MINIMAL INHIBITORY CONCENTRATION MIC, Mouse Serum
  MIC: 0.5 µg/mL (≈ 0.64 µM)
S. aureus GC 1131; GC1131, read-out: MINIMAL INHIBITORY CONCENTRATION MIC, Water
  MIC: 2 µg/mL (≈ 2.56 µM)
Staph. aureus Smith; Staphylococcus aureus, in Mus musculus, iv, read-out: ED50 SIV (Staph aureus Smith)
  ED50: 1.29 mg/kg
Staph. aureus Smith; Staphylococcus aureus, in Mus musculus, po, read-out: ED50 SOD (Staph aureus Smith)
  ED50: 10.7 mg/kg
Staph. aureus Smith; Staphylococcus aureus, in Mus musculus, po, read-out: ED50 Staph Smith SOD
  ED50: 10.7 mg/kg
Staph. aureus Smith; iv, read-out: ED50 Staph Smith SIV
  ED50: 1.29 mg/kg
E. faecium GC 4556; GC4556, read-out: MINIMAL INHIBITORY CONCENTRATION MIC, Human Serum
  MIC: 2 µg/mL (≈ 2.56 µM)
E. faecium GC 4556; GC4556, read-out: MINIMAL INHIBITORY CONCENTRATION MIC, Mouse Serum
  MIC: 0.5 µg/mL (≈ 0.64 µM)
E. faecium GC 4556; GC4556, read-out: MINIMAL INHIBITORY CONCENTRATION MIC, Water
  MIC: 4 µg/mL (≈ 5.12 µM)
